The source made the active and inactive calls. No cut-off for these calls is given here.
Legend:
[1] = test system: Echinochloa crus-galli; assay: Post-emergent herbicidal activity against Echinochloa crus-galli (barnyard grass) at <2 g/ha measured after 13 days under green house conditions; format: functional, organism-based
[2] = test system: Echinochloa crus-galli; assay: Post-emergent herbicidal activity against Echinochloa crus-galli (barnyard grass) at 100 g/ha measured after 13 days under green house conditions; format: functional
[3] = test system: Setaria viridis; assay: Post-emergent herbicidal activity against Setaria viridis (green foxtail) at <2 g/ha measured after 13 days under green house conditions; format: functional, organism-based
[4] = test system: Setaria viridis; assay: Post-emergent herbicidal activity against Setaria viridis (green foxtail) at 100 g/ha measured after 13 days under green house conditions; format: functional
[5] = test system: Sorghum halepense; assay: Post-emergent herbicidal activity against Sorghum halepense (Johnson grass) at 100 g/ha measured after 13 days under green house conditions; format: functional
[6] = test system: Avena fatua; assay: Post-emergent herbicidal activity against Avena fatua at <2 g/ha measured after 13 days under green house conditions; format: functional, organism-based
[7] = test system: Avena fatua; assay: Post-emergent herbicidal activity against Avena fatua at 100 g/ha measured after 13 days under green house conditions; format: functional
[8] = test system: Triticum aestivum; assay: Phytotoxicity against Triticum aestivum (wheat) at two to four-leaf growth stage at <2 g/ha measured after 13 days under green house conditions; format: organism-based; details: in vivo, 312 h
[9] = test system: Triticum aestivum; assay: Phytotoxicity against Triticum aestivum (wheat) at two to four-leaf growth stage at 100 g/ha measured after 13 days under green house conditions; format: organism-based; details: in vivo, 312 h
[10] = test system: Oryza sativa; assay: Phytotoxicity against Oryza sativa (rice) plant at two to four-leaf growth stage at <2 g/ha measured after 13 days under green house conditions; format: organism-based; details: in vivo, 312 h
[11] = test system: Sorghum halepense; assay: Post-emergent herbicidal activity against Sorghum halepense (Johnson grass) at <2 g/ha measured after 13 days under green house conditions; format: functional, organism-based
[12] = test system: Oryza sativa; assay: Phytotoxicity against Oryza sativa (rice) plant at two to four-leaf growth stage at 100 g/ha measured after 13 days under green house conditions; format: organism-based; details: in vivo, 312 h
[13] = test system: Zea mays; assay: Phytotoxicity against Zea mays (maize) plant at two to four-leaf growth stage at <2 g/ha measured after 13 days under green house conditions; format: organism-based; details: in vivo, 312 h
[14] = test system: Zea mays; assay: Phytotoxicity against Zea mays (maize) plant at two to four-leaf growth stage at 100 g/ha measured after 13 days under green house conditions; format: organism-based; details: in vivo, 312 h
[15] = test system: Echinochloa crus-galli; assay: Post-emergent herbicidal activity against Echinochloa crus-galli (barnyard grass) at 250 g/ha measured after 13 days under green house conditions; format: functional
[16] = test system: Setaria viridis; assay: Post-emergent herbicidal activity against Setaria viridis (green foxtail) at 250 g/ha measured after 13 days under green house conditions; format: functional
[17] = test system: Avena fatua; assay: Post-emergent herbicidal activity against Avena fatua at 250 g/ha measured after 13 days under green house conditions; format: functional
[18] = test system: Triticum aestivum; assay: Phytotoxicity against Triticum aestivum (wheat) at two to four-leaf growth stage at 250 g/ha measured after 13 days under green house conditions; format: organism-based; details: in vivo, 312 h
[19] = test system: Sorghum halepense; assay: Post-emergent herbicidal activity against Sorghum halepense (Johnson grass) at 250 g/ha measured after 13 days under green house conditions; format: functional
[20] = test system: Oryza sativa; assay: Phytotoxicity against Oryza sativa (rice) plant at two to four-leaf growth stage at 250 g/ha measured after 13 days under green house conditions; format: organism-based; details: in vivo, 312 h
[21] = test system: Zea mays; assay: Phytotoxicity against Zea mays (maize) plant at two to four-leaf growth stage at 250 g/ha measured after 13 days under green house conditions; format: organism-based; details: in vivo, 312 h
[22] = test system: Echinochloa crus-galli; assay: Post-emergent herbicidal activity against Echinochloa crus-galli (barnyard grass) at 500 g/ha measured after 13 days under green house conditions; format: functional
[23] = test system: Sorghum halepense; assay: Post-emergent herbicidal activity against Sorghum halepense (Johnson grass) at 500 g/ha measured after 13 days under green house conditions; format: functional
[24] = test system: Avena fatua; assay: Post-emergent herbicidal activity against Avena fatua at 500 g/ha measured after 13 days under green house conditions; format: functional
[25] = test system: Triticum aestivum; assay: Phytotoxicity against Triticum aestivum (wheat) plant at two to four-leaf growth stage at 500 g/ha measured after 13 days under green house conditions; format: organism-based; details: in vivo, 312 h
[26] = test system: Setaria viridis; assay: Post-emergent herbicidal activity against Setaria viridis (green foxtail) at 500 g/ha measured after 13 days under green house conditions; format: functional
[27] = test system: Oryza sativa; assay: Phytotoxicity against Oryza sativa (rice) plant at two to four-leaf growth stage at 500 g/ha measured after 13 days under green house conditions; format: organism-based; details: in vivo, 312 h
[28] = test system: Zea mays; assay: Phytotoxicity against Zea mays (maize) plant at two to four-leaf growth stage at 500 g/ha measured after 13 days under green house conditions; format: organism-based; details: in vivo, 312 h
[29] = test system: Echinochloa crus-galli; assay: Post-emergent herbicidal activity against Echinochloa crus-galli (barnyard grass) at 5 g/ha measured after 13 days under green house conditions; format: functional
[30] = test system: Echinochloa crus-galli; assay: Post-emergent herbicidal activity against Echinochloa crus-galli (barnyard grass) at 50 g/ha measured after 13 days under green house conditions; format: functional
[31] = test system: Setaria viridis; assay: Post-emergent herbicidal activity against Setaria viridis (green foxtail) at 5 g/ha measured after 13 days under green house conditions; format: functional
[32] = test system: Setaria viridis; assay: Post-emergent herbicidal activity against Setaria viridis (green foxtail) at 50 g/ha measured after 13 days under green house conditions; format: functional
[33] = test system: Sorghum halepense; assay: Post-emergent herbicidal activity against Sorghum halepense (Johnson grass) at 5 g/ha measured after 13 days under green house conditions; format: functional
[34] = test system: Sorghum halepense; assay: Post-emergent herbicidal activity against Sorghum halepense (Johnson grass) at 50 g/ha measured after 13 days under green house conditions; format: functional
[35] = test system: Avena fatua; assay: Post-emergent herbicidal activity against Avena fatua at 5 g/ha measured after 13 days under green house conditions; format: functional
[36] = test system: Avena fatua; assay: Post-emergent herbicidal activity against Avena fatua at 50 g/ha measured after 13 days under green house conditions; format: functional
[37] = test system: Triticum aestivum; assay: Phytotoxicity against Triticum aestivum (wheat) at two to four-leaf growth stage at 5 g/ha measured after 13 days under green house conditions; format: organism-based; details: in vivo, 312 h
[38] = test system: Triticum aestivum; assay: Phytotoxicity against Triticum aestivum (wheat) at two to four-leaf growth stage at 50 g/ha measured after 13 days under green house conditions; format: organism-based; details: in vivo, 312 h
[39] = test system: Oryza sativa; assay: Phytotoxicity against Oryza sativa (rice) plant at two to four-leaf growth stage at 5 g/ha measured after 13 days under green house conditions; format: organism-based; details: in vivo, 312 h
[40] = test system: Oryza sativa; assay: Phytotoxicity against Oryza sativa (rice) plant at two to four-leaf growth stage at 50 g/ha measured after 13 days under green house conditions; format: organism-based; details: in vivo, 312 h
[41] = test system: Zea mays; assay: Phytotoxicity against Zea mays (maize) plant at two to four-leaf growth stage at 5 g/ha measured after 13 days under green house conditions; format: organism-based; details: in vivo, 312 h
[42] = test system: Zea mays; assay: Phytotoxicity against Zea mays (maize) plant at two to four-leaf growth stage at 50 g/ha measured after 13 days under green house conditions; format: organism-based; details: in vivo, 312 h
[43] = molecular target: Acetyl-CoA carboxylase (Hordeum vulgare) (UniProt Q3V4F7+Q3V4I7+Q947J4+Q947J5+Q40010+Q5S741+Q5S747); assay: Inhibition of acetyl-CoA carboxylase in Hordeum vulgare (barley) leaves; format: protein assay
[44] = test system: Echinochloa crus-galli; assay: Post-emergent herbicidal activity against Echinochloa crus-galli (barnyard grass) at 12.5 g/ha measured after 13 days under green house conditions; format: functional
[45] = test system: Setaria viridis; assay: Post-emergent herbicidal activity against Setaria viridis (green foxtail) at 12.5 g/ha measured after 13 days under green house conditions; format: functional
[46] = test system: Avena fatua; assay: Post-emergent herbicidal activity against Avena fatua at 12.5 g/ha measured after 13 days under green house conditions; format: functional
[47] = test system: Triticum aestivum; assay: Phytotoxicity against Triticum aestivum (wheat) at two to four-leaf growth stage at 12.5 g/ha measured after 13 days under green house conditions; format: organism-based; details: in vivo, 312 h
[48] = test system: Sorghum halepense; assay: Post-emergent herbicidal activity against Sorghum halepense (Johnson grass) at 12.5 g/ha measured after 13 days under green house conditions; format: functional
[49] = test system: Oryza sativa; assay: Phytotoxicity against Oryza sativa (rice) plant at two to four-leaf growth stage at 12.5 g/ha measured after 13 days under green house conditions; format: organism-based; details: in vivo, 312 h
[50] = test system: Zea mays; assay: Phytotoxicity against Zea mays (maize) plant at two to four-leaf growth stage at 12.5 g/ha measured after 13 days under green house conditions; format: organism-based; details: in vivo, 312 h

CCOC(=O)C(C)Oc1ccc(N(C)c2nc3ccccc3o2)cc1 (racemic)
Activity [1]: inactive
Activity [2]: 100%
Activity [3]: inactive
Activity [4]: 85%
Activity [5]: 100%
Activity [6]: inactive
Activity [7]: 70%
Activity [8]: Non-toxic
Activity [9]: 85%
Activity [10]: Non-toxic
Activity [11]: inactive
Activity [12]: 30%
Activity [13]: Non-toxic
Activity [14]: 100%

COC(=O)C(C)Oc1ccc(N(C)c2ncc(Cl)cn2)cc1 (racemic)
Activity [1]: inactive
Activity [15]: 100%
Activity [3]: inactive
Activity [16]: 85%
Activity [6]: inactive
Activity [17]: 85%
Activity [8]: Non-toxic
Activity [18]: 85%
Activity [10]: Non-toxic
Activity [11]: inactive
Activity [19]: 85%
Activity [20]: 70%
Activity [13]: Non-toxic
Activity [21]: 85%

CCOC(=O)C(C)Oc1ccc(Oc2ncc(Cl)cn2)cc1 (racemic)
Activity [1]: inactive
Activity [15]: 85%
Activity [3]: inactive
Activity [16]: 85%
Activity [6]: inactive
Activity [17]: 85%
Activity [8]: Non-toxic
Activity [18]: 70%
Activity [10]: Non-toxic
Activity [11]: inactive
Activity [19]: 85%
Activity [20]: 70%
Activity [13]: Non-toxic
Activity [21]: 85%

CCOC(=O)C(C)Oc1ccc(N(C)c2cc3ccc(Cl)cc3cn2)cc1 (racemic)
Activity [1]: inactive
Activity [22]: 100%
Activity [3]: inactive
Activity [23]: 85%
Activity [6]: inactive
Activity [24]: 70%
Activity [8]: Non-toxic
Activity [25]: 85%
Activity [10]: Non-toxic
Activity [11]: inactive
Activity [26]: 85%
Activity [27]: 0%
Activity [13]: Non-toxic
Activity [28]: 100%

COC(=O)C(C)Oc1ccc(N(C)c2nnc3cc(Cl)ccc3n2)cc1 (racemic)
Activity [1]: inactive
Activity [29]: 0%
Activity [30]: 100%
Activity [3]: inactive
Activity [31]: 100%
Activity [32]: 100%
Activity [33]: 50%
Activity [34]: 100%
Activity [6]: inactive
Activity [35]: 50%
Activity [36]: 85%
Activity [8]: Non-toxic
Activity [37]: 70%
Activity [38]: 85%
Activity [10]: Non-toxic
Activity [11]: inactive
Activity [39]: 0%
Activity [40]: 85%
Activity [13]: Non-toxic
Activity [41]: 70%
Activity [42]: 85%

CCOC(=O)C(C)Oc1ccc(N(C)c2ncc3cc(Cl)ccc3n2)cc1 (racemic)
Activity [43]: 1.5 µM
Activity [1]: inactive
Activity [44]: 98%
Activity [30]: 85%
Activity [45]: 65%
Activity [3]: inactive
Activity [32]: 98%
Activity [34]: 98%
Activity [6]: inactive
Activity [46]: 0%
Activity [36]: 15%
Activity [8]: Non-toxic
Activity [47]: 35%
Activity [38]: 65%
Activity [10]: Non-toxic
Activity [11]: inactive
Activity [48]: 65%
Activity [49]: 0%
Activity [40]: 35%
Activity [13]: Non-toxic
Activity [50]: 15%
Activity [42]: 65%

CCCCOC(=O)C(C)Oc1ccc(Oc2ccc(C(F)(F)F)cn2)cc1 (racemic)
Activity [1]: inactive
Activity [30]: 85%
Activity [3]: inactive
Activity [32]: 85%
Activity [34]: 85%
Activity [6]: inactive
Activity [36]: 85%
Activity [8]: Non-toxic
Activity [38]: 70%
Activity [10]: Non-toxic
Activity [11]: inactive
Activity [40]: 50%
Activity [13]: Non-toxic
Activity [42]: 85%

COC(=O)C(C)Oc1ccc(Oc2ccc(Cl)cc2Cl)cc1 (racemic) [DICLOFOP-METHYL]
Activity [1]: inactive
Activity [22]: 100%
Activity [3]: inactive
Activity [23]: 70%
Activity [6]: inactive
Activity [24]: 70%
Activity [8]: Non-toxic
Activity [25]: 0%
Activity [10]: Non-toxic
Activity [11]: inactive
Activity [26]: 100%
Activity [27]: 0%
Activity [13]: Non-toxic
Activity [28]: 85%

CCOC(=O)C(C)Oc1ccc(Oc2nc3ccc(Cl)cc3o2)cc1 (racemic) [FENOXAPROP-ETHYL]
Activity [1]: inactive
Activity [30]: 100%
Activity [3]: inactive
Activity [32]: 100%
Activity [34]: 100%
Activity [6]: inactive
Activity [36]: 85%
Activity [8]: Non-toxic
Activity [38]: 0%
Activity [10]: Non-toxic
Activity [11]: inactive
Activity [40]: 70%
Activity [13]: Non-toxic
Activity [42]: 85%

CCOC(=O)C(C)Oc1ccc(Oc2cnc3cc(Cl)ccc3n2)cc1 (racemic) [QUIZALOFOP ETHYL ESTER]
Activity [1]: inactive
Activity [29]: 70%
Activity [30]: 100%
Activity [3]: inactive
Activity [31]: 70%
Activity [32]: 100%
Activity [33]: 85%
Activity [34]: 100%
Activity [6]: inactive
Activity [35]: 30%
Activity [36]: 85%
Activity [8]: Non-toxic
Activity [37]: 85%
Activity [38]: 85%
Activity [10]: Non-toxic
Activity [11]: inactive
Activity [39]: 50%
Activity [40]: 70%
Activity [13]: Non-toxic
Activity [41]: 85%
Activity [42]: 100%

From ChEMBL document CHEMBL3045941, “-Methyl as a bioisostere for the oxygen link between the aromatic rings of aryloxyphenoxypropionate herbicides” (Bioorg Med Chem Lett, 1997)
